Measurements: patent US11793770B2, “7-OH-cannabidiol (7-OH-CBD) and/or 7-OH-cannabidivarin (7-OH-CBDV) for use in the treatment of epilepsy” (GW Research Limited, priority 2014, dated 2023)
Marks after values point to notes of the source that are not given here.

Experiments:
PTZ-induced seizures = assay: PTZ model of generalised (acute) seizures; type: in vivo, rat; details: for Anti-convulsant action in the PTZ model of acute seizure: 7-OH-CBDV 200 mg/kg, 7-OH-CBD 100 mg/kg IP; for Maximum observed seizure severity (median): IP 30 min before PTZ 70 or 80 mg/kg IP, score scale 0-6, FIG. 1A; for Maximum observed seizure severity (median) / Mortality / Latency to seizure onset: CBD and 7-OH CBD 100 mg/kg; for Mortality: FIG. 1B; for Potency compared with parent cannabinoid: metabolite vs parent (CBD, CBDV) at the same dose; for Latency to seizure onset: FIG. 1D
Protocol: Male Wistar rats (P24-29; 75-110 g) were used to assess the effects of the cannabinoids listed above on the PTZ model of generalised seizures. Animals were habituated to the test environment, cages, injection protocol and handling prior to experimentation. Animals were housed in a room at 21° C. on a 12 hour light: dark cycle (lights on 0900) in 50% humidity, with free access to food and water.
Five 6 L Perspex (RTM) tanks with lids were placed on a single bench with dividers between them. Closed-circuit television (CCTV) cameras were mounted onto the dividers to observe rat behaviour. Sony Topica CCD cameras (Bluecherry, USA) were linked via BNC cables to a low-noise PC via Brooktree digital capture cards (Bluecherry, USA). Zoneminder (http://www.zoneminder.com) software was used to monitor rats, start and end recordings and manage video files. In-house Linux (RTM) scripts were used to encode video files into a suitable format for further offline analysis
Animals were filmed for half an hour after last sign of seizure, and then returned to their cage.
Animals were observed during experimental procedures, but all analysis was performed offline on recorded video files using The Observer behavioural analysis software (Noldus, Netherlands). A seizure severity scoring system was used to determine the levels of seizure experienced by subjects (Table 1). All signs of seizure were detailed for all animals.
The latency (in seconds) from injection of PTZ to first myoclonic jerk (FMJ; score of 1), and to the animal attaining “forelimb clonus with tonic component and body twist” (score of 3.5) were recorded. […] Data are presented as the mean±S.E.M. within an experimental group.
This is given as the median value for each experimental group based on the scoring scale above.
The percentage of animals within an experimental group that died as a result of PTZ-induced seizures. A score of 6 (death) automatically denotes that the animal also experienced tonic-clonic seizures.
This is given as the mean±S.E.M. for each experimental group.
Differences in latencies and durations were assessed by one-way analysis of variance (ANOVA) with post-hoc Tukey's test. P≤0.05 was considered significant.

[1] = tested on: Maximal electroshock seizures (MES); assay: Maximal electroshock (MES) model of seizure; type: in vivo, mouse
Protocol: The vehicle used in this study was 2:1:17 (ethanol:Cremophor:0.9% w/v NaCl). […] This was made to a solution at the highest concentration; then dissolved in ethanol before combination with Cremophor and 0.9% NaCl in the proportion described above. The 7-OH-CBDV was administered intraperitoneally at a volume of 10 ml/kg body weight.
Animal Species/Strain: Mouse/ICR, Microbiological grade: SPF, Inc. Sex: male, Age (at time of testing): 5-7 weeks old, Number of animals: about 5 animals per group. Temperature: 23±2° C., Humidity: 60±10%, Light conditions: 7 AM to 7 PM for the light period, 7 PM to 7 AM for the dark period. Chow and water: Free access to CRF-1 (Oriental Yeast Co, Ltd) and tap water.
One day before each experiment, mice were weighed and randomized into several groups in each test. On the morning of the experiment day, body weight was measured in order to calculate the administration volume of each animal. Vehicle, 7-OH-CBDV or CBDV was interperitoneally administered 30 minutes before electric stimuli. […]
All statistical analyses were performed using SAS Software for Windows, Release 9.1. The difference of the number (hindlimb extension or deaths) in each group was assessed using two-tailed Fisher's exact test. […]

[2] = tested on: seizures in epileptic patients; details: cited from earlier work
[3] = tested on: seizures after pro-convulsant drugs or an electric current; details: mice, after pro-convulsant drugs or an electric current (Consroe et al., 1982); cited from earlier work
[4] = WO 01/95899; cited from earlier work
[5] = CBDV and 7-OH CBDV 200 mg/kg, n=11
[6] = IP 30 min before PTZ, CBDV and 7-OH CBDV 200 mg/kg, n=11

Row | Compound | Anti-convulsant action in the PTZ model of acute seizure (PTZ-induced seizures) | Maximum observed seizure severity (median) (PTZ-induced seizures; [5]) | Mortality (PTZ-induced seizures; [6]) | Potency compared with parent cannabinoid (PTZ-induced seizures) | Anti-convulsant effects in the MES model ([1]; 150 and 200 mg/kg i.p.) | Patients becoming seizure free ([2]; 200 mg/day pure CBD, four adult patients (Mechoulam and Carlini, 1978)) | Control of seizures ([2]; 200 mg/day pure CBD, open label, twelve institutionalized adult patients (Ames and Cridland, 1986)) | Number of patients with marked reduction of seizures ([2]; eight adult patients with generalized epilepsy (Cunha et al., 1980)) | Epileptic patients describing an improvement in their condition ([2]; eight epileptic patients (Carlini et al., 1981)) | Prevention of seizures [3] | Incidence of tonic clonic seizures (PTZ-induced seizures; IP 30 min before PTZ, CBDV and 7-OH CBDV 200 mg/kg, n=11, FIG. 1C) | Percentage decrease in tonic clonic convulsions compared with vehicle ([1]; 200 mg/kg i.p., 30 minutes before electric stimuli, ICR mice) [% ***] | Latency to seizure onset (PTZ-induced seizures; [6]) | Latency to seizure onset (PTZ-induced seizures; IP 30 min before PTZ, CBDV and 7-OH CBDV 200 mg/kg, n=11, listed as 7-OH CBD) | Efficacy in a model of inflammation [4]
1 | C=C(C)[C@@H]1CCC(CO)=C[C@H]1c1c(O)cc(CCC)cc1O [7-OH-CBDV, 7-hydroxy-cannabidivarin] | show anti-convulsant action | 3 | significant effect on mortality | more potent than their parent cannabinoids | anti-convulsant effects | – | – | – | – | – | – | – | – | – | –
2 | C=C(C)[C@@H]1CCC(C)=C[C@H]1c1c(O)cc(CCCCC)cc1O [CBD, Cannabidiol] | – | – | reduction in mortality | – | – | two of the four patients became seizure free | ineffective in controlling seizures | 4 | Seven out of the eight | able to prevent seizures | – | – | – | – | –
3 | C=C(C)[C@@H]1CCC(C)=C[C@H]1c1c(O)cc(CCC)cc1O [CBDV, Cannabidivarin] | – | significantly reduced seizure severity | significant effect on mortality | – | – | – | – | – | – | – | significantly reduced | 82 | – | – | –
4 | C=C(C)[C@@H]1CCC(CO)=C[C@H]1c1c(O)cc(CCCCC)cc1O [7-OH-CBD, 7-hydroxy-cannabidiol] | show anti-convulsant action | – | reduction in mortality | more potent than their parent cannabinoids | – | – | – | – | – | – | – | – | significantly reduce the latency to onset of seizures | significantly reduced the latency to seizure onset | found to be effective
